The record followed here is US20230142913A1, “TRICYCLIC HETEROARENES, PHARMACEUTICAL COMPOSITIONS CONTAINING THE SAME, AND METHODS OF USING THE SAME” (priority 2021, published 2023).

pIC50: −log10 of the molar value. Some results are limits rather than exact numbers.

The target of one assay is T1, recombinant human Myt1 (full length PKMYT1) (Homo sapiens, UniProt Q99640).
T1 sequence (Q99640 1-499): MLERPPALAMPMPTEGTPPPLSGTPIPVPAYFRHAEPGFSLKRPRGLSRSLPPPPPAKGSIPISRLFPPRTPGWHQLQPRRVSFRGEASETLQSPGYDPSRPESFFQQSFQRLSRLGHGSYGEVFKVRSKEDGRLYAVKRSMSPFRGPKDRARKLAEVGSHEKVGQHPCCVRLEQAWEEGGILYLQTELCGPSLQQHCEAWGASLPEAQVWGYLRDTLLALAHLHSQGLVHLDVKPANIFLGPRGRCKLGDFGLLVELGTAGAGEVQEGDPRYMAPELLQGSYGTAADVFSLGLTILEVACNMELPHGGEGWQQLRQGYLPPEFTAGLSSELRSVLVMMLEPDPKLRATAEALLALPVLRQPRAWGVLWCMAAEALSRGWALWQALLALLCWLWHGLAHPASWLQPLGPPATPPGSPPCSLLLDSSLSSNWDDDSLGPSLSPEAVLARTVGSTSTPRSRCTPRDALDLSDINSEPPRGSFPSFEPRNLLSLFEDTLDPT
Kind of assay: Recombinant human Myt1 kinase assay (ADP-Glo).
Conditions: not given
For `Cc1ccc(O)c(C)c1-n1c(N)c(C(N)=O)c2nc3cc(C#CCO)ccc3nc21` [Compound 45, 2-amino-1-(3-hydroxy-2,6-dimethyl-phenyl)-6-(3-hydroxyprop-1-ynyl)pyrrolo[2,3-b]quinoxaline-3-carboxamide], the negative-log IC50 (pIC50) was > 8.00.

Take `Cc1ccc(O)c(C)c1-n1cc(C(N)=O)c2c3ccccc3cnc21` [Compound 88, 3-(3-hydroxy-2,6-dimethylphenyl)-3H-pyrrolo[2,3-c]isoquinoline-1-carboxamide]: the pIC50 is 7.49.

As to `Cc1ccc(O)c(C)c1-n1c(N)c(C(N)=O)c2nc3cc(-c4cccc(C#N)c4)ccc3nc21` [Compound 48], the pIC50 was 7.96.

For `Cc1ccc(O)c(C2CC2)c1-n1c(N)c(C(N)=O)c2nc3ccccc3nc21` [Compound 11], the pIC50 was 5.66.

As to `CCc1ccc(O)c(C)c1-n1c(N)c(C(N)=O)c2nc3ccccc3nc21` [Compound 13], the negative-log IC50 (pIC50) was 6.37.

`Cc1ccc(O)c(C)c1-n1c(N)c(C(N)=O)c2nc3c(-c4ccccc4)cccc3nc21` [Compound 36]: the pIC50 is 7.77.

As for `Cc1ccc(O)cc1-n1cc(C(N)=O)c2nc3ccccc3nc21` [Compound 23], the pIC50 was 6.49.

On to `Cc1ccc(O)c(C)c1-n1c(N)c(C(N)=O)c2nc3ccc(C#CCO)cc3nc21` [Compound 58], for which the pIC50 was 7.96.

As for `C=C(C)c1ccc2nc3c(C(N)=O)c(N)n(-c4c(C)ccc(O)c4C)c3nc2c1` [Compound 68, 2-amino-1-(3-hydroxy-2,6-dimethyl-phenyl)-7-isopropenyl-pyrrolo[3,2-b]quinoxaline-3-carboxamide or either 2-amino-1-(3-hydroxy-2,6-dimethyl-phenyl)-6-isopropenyl-pyrrolo[3,2-b]quinoxaline-3-carboxamide], the pIC50 is 7.89.

Regarding `Cc1ccc(O)c(C)c1-n1c(N)c(C(N)=O)c2nc3cc(-c4ccccc4)ccc3nc21` [Compound 47], the negative-log IC50 (pIC50) is > 8.00.

With `Cc1ccc(O)c(C)c1-n1c(N)c(C(N)=O)c2nc3cc(-c4cn[nH]c4)ccc3nc21` [Compound 54], the pIC50 is > 8.00.

Take `CCc1c(O)ccc(C)c1-n1c(N)c(C(N)=O)c2nc3ccccc3nc21` [Compound 12]: the pIC50 is 7.01.

Turning to `NC(=O)c1c(N)n(-c2cccc3[nH]nc(Cl)c23)c2nc3ccccc3nc12` [Compound 8], the pIC50 was 6.54.

Consider `NC(=O)c1c(N)n(-c2cccc3[nH]nc(F)c23)c2nc3ccccc3nc12` [Compound 9], for which the pIC50 is 6.55.

On to `Cc1c(O)ccc(C2CC2)c1-n1c(N)c(C(N)=O)c2nc3ccccc3nc21` [Compound 85], for which the pIC50 was 4.31.

Take `Cc1ccc(O)c(C)c1-n1c(N)c(C(N)=O)c2nc3cc(C#CC4CC4)ccc3nc21` [Compound 40]: the pIC50 is > 8.00.

Turning to `Cc1ccc(O)c(C)c1-n1c(N)c(C(N)=O)c2nc3c(C#CC4CC4)cccc3nc21` [Compound 33], the pIC50 is 7.80.

As for `Cc1ccc(O)c(C)c1-n1c(N)c(C(N)=O)c2nc3cc(C4=CCOCC4)ccc3nc21` [Compound 51], the pIC50 is > 8.00.

As to `Cc1ccc(O)c(C)c1-n1c(N)c(C(N)=O)c2nc3cc(C#CCN4CCOCC4)ccc3nc21` [Compound 44], the pIC50 was > 8.00.

Regarding `Cc1ccc(O)c(C)c1-n1cc(C(N)=O)c2cc3c(cnn3C)nc21` [Compound 89, 5-(3-hydroxy-2,6-dimethylphenyl)-1-methyl-1,5-dihydropyrazolo[4,3-b]pyrrolo[3,2-e]pyridine-7-carboxamide], the negative logarithm of the IC50 (pIC50) was 7.51.

Consider `Cc1ccc(O)c(C)c1-n1c(N)c(C(N)=O)c2nc3c(C4=CCOCC4)cccc3nc21` [Compound 34], for which the pIC50 was 7.92.

On to `Cc1ccc(O)cc1-n1c(N)c(C(N)=O)c2nc3nc(N)sc3nc21` [Compound 16, 2,6-diamino-5-(5-hydroxy-2-methylphenyl)-5H-pyrrolo[2,3-b]thiazolo[4,5-e]pyrazine-7-carboxamide], for which the pIC50 was 7.03.

With `Cc1ccc(O)c(C)c1-n1c(N)c(C(N)=O)c2nc3cc(-c4ccc(N5CCN(CCO)CC5)cc4)ccc3nc21` [Compound 52], the pIC50 was > 8.00.

Turning to `Cc1ccc(O)cc1-n1c(N)c(C(=O)NC2CC2)c2nc3ccccc3nc21` [Compound 20, 2-amino-N-cyclopropyl-1-(5-hydroxy-2-methylphenyl)-1H-pyrrolo[2,3-b]quinoxaline-3-carboxamide], the pIC50 is 5.12.

On to `NC(=O)c1c(N)n(-c2cc(O)ccc2Cl)c2nc3ccccc3nc12` [Compound 4], for which the pIC50 was 6.89.

With `Cc1ccc(O)c(C)c1-n1c(N)c(C(N)=O)c2nc3cc(C#Cc4cnccn4)ccc3nc21` [Compound 43], the negative-log IC50 (pIC50) was > 8.00.

Consider `Cc1ccc(O)c(C)c1-n1c(N)c(C(N)=O)c2nc3cc(CCCO)ccc3nc21` [Compound 46, 2-amino-1-(3-hydroxy-2,6-dimethyl-phenyl)-6-(3-hydroxypropyl)pyrrolo[2,3-b]quinoxaline-3-carboxamide], for which the negative logarithm of the IC50 (pIC50) was > 8.00.

In the case of `Cc1ccc(O)c(C)c1-n1c(N)c(C(N)=O)c2nc3c(-c4cccn4C)cccc3nc21` [Compound 35], the pIC50 is > 8.00.

For `Cc1ccc(O)c(C)c1-n1c(N)c(C(N)=O)c2nc3c(nc21)CCCC3` [Compound 84], the pIC50 was 7.96.

In the case of `Cc1ccc(O)c(C)c1-n1c(N)c(C(N)=O)c2nc3c(F)ccc(F)c3nc21` [Compound 28], the pIC50 was > 8.00.

The same assay, now with this note: Myt1 IC50 (nM), recombinant human Myt1 18 nM, ATP 10 μM, ADP-Glo luminescence.
In the case of `Cc1ccc(O)c(C)c1-n1c(N)c(C(N)=O)c2nc3cccc(-c4ccnn4C)c3nc21` [Compound 61], the IC50 is < 10 nM.

Consider `Cc1ccc(O)c(C)c1-n1c(N)c(C(N)=O)c2nc3cccc(Br)c3nc21` [Compound 59, 2-amino-8-bromo-1-(3-hydroxy-2,6-dimethyl-phenyl)pyrrolo[3,2-b]quinoxaline-3-carboxamide], for which the IC50 is < 10 nM.

For the compound `Cc1ccc(O)c(C)c1-n1c(N)c(C(N)=O)c2nc3cccc(C4=CCCC4)c3nc21` [Compound 62], the half-maximal inhibitory concentration (IC50) was < 10 nM.

Regarding `Cc1ccc(O)c(C)c1-n1c(N)c(C(N)=O)c2nc3cc(Br)ccc3nc21` [Compound 38, 2-amino-6-bromo-1-(3-hydroxy-2,6-dimethyl-phenyl)pyrrolo[2,3-b]quinoxaline-3-carboxamide], the IC50 is < 10 nM.

Still in this assay, the particulars now being: read-out: Myt1 IC50; recombinant human Myt1 18 nM, ATP 10 μM, ADP-Glo luminescence.
“2-amino-7-bromo-1-(3-hydroxy-2,6-dimethylphenyl)-1H-pyrido[2,3-b]pyrrolo[2,3-e]pyrazine-3-carboxamide or 2-amino-6-bromo-1-(3-hydroxy-2,6-dimethylphenyl)-1H-pyrido[2,3-b]pyrrolo[3,2-e]pyrazine-3-carboxamide [Compound 79]”: the pIC50 was 7.52.

Take “2-amino-1-(3-hydroxy-2,6-dimethylphenyl)-1H-pyrido[2,3-b]pyrrolo[2,3-e]pyrazine-3-carboxamide or 2-amino-1-(3-hydroxy-2,6-dimethylphenyl)-1H-pyrido[2,3-b]pyrrolo[3,2-e]pyrazine-3-carboxamide [Compound 82]”: the pIC50 is 7.68.

Consider “2-amino-1-(3-hydroxy-2,6-dimethyl-phenyl)-7-(1-hydroxy-1-methyl-ethyl)pyrrolo[3,2-b]quinoxaline-3-carboxamide or 2-amino-1-(3-hydroxy-2,6-dimethyl-phenyl)-6-(1-hydroxy-1-methyl-ethyl)pyrrolo[3,2-b]quinoxaline-3-carboxamide [Compound 67]”, for which the pIC50 is 8.00.

For the compound “2-amino-1-(3-hydroxy-2,6-dimethyl-phenyl)-7-(morpholine-4-carbonyl)pyrrolo[3,2-b]quinoxaline-3-carboxamide or 2-amino-1-(3-hydroxy-2,6-dimethyl-phenyl)-6-(morpholine-4-carbonyl)pyrrolo[3,2-b]quinoxaline-3-carboxamide [Compound 66]”, the negative logarithm of the IC50 (pIC50) is 7.89.

One may read the pIC50 as the IC50 on a negative log10 scale, so that one unit is a factor of ten. As usually defined, the IC50 is the concentration that inhibits the measured activity by half.
